Source: publication PMC11927960, “Multiparameter ranking of carbazoles for anti-trypanosome lead discovery” (Frontiers in drug discovery, 2024)
Read-outs that look alike come from different tables or passages of the source.

What was measured:
[1] = Caco-2 bidirectional permeability assay; type: in vitro ADME; conditions: human
Experimental: Caco-2 bidirectional permeability assay.
Caco-2 bidirectional permeability assay was performed at Absorption Systems (Exton, Pennsylvania). Briefly, monolayers of Caco-2 cells (clone C2BBe1) were grown to confluence on collagen-coated, microporous membranes in 12-well plates. Permeability assay buffer (Hanks’ balanced salt solution containing 10 mM HEPES and 15 mM glucose, pH 7.4) in the receiver chamber contained 1% bovine serum albumin. Compounds dissolved in assay buffer (5 μM) were added either on the apical (A) or the basolateral side (B) and incubated at 37 °C with 5% CO2 in a humidified incubator. Samples were collected from donor and receiver chambers at 120 min. Each determination was performed in duplicate. The flux of lucifer yellow dye was measured post-experimentally for each monolayer to ensure that no monolayers were damaged during the flux period with compounds. Drug amounts were determined by LC-MS/MS. Apparent permeability (Papp) and percent recovery were determined as per [Hubatsch et al. (2007)]. The efflux ratio was calculated as Papp (B-to-A)/Papp (A-to-B).

[2] = Brain accumulation (brain to plasma concentration ratio); conditions: Swiss Webster, mouse
Experimental: The plasma concentration and tissue distribution of drugs were determined by Absorption Systems. […] Blood and brain samples were obtained at 1, 2, 4, and 6 h post-dosing, and plasma and brain concentrations of the drug were determined using LC-MS/MS. Stock standards for calibration were prepared in a matrix comprising equal volumes of water and mouse blood containing K2-EDTA as an anticoagulant. Working solutions were prepared in 50:50 acetonitrile–water and added to the matrix to final concentrations of 1,000, 500, 100, 50.0, 10.0, 5.00, 1.00, and 0.500 ng/mL for all compounds. Pharmacokinetic parameters were determined using Phoenix WinNonlin (v8.0) software with sparse sampling. Maximum plasma concentration (Cmax) and the time to reach maximum plasma concentration (tmax) were determined from the four data points. The area under the time concentration curve (AUClast) was calculated using the linear trapezoidal rule with calculation to a 6-h data point. Plasma half-life (t1/2) was calculated from 0.693/slope of the terminal elimination phase. Samples below the limit of detection (0.500 ng/mL) were treated as 0. […]
or CBL0187, respectively. Blood and brain samples were obtained at 1, 2, 4, and 6 h post-dosing, and plasma and brain concentrations of the carbazoles were determined using LC-MS/MS. (A) Brain tissue concentrations of curaxins at different time points (B) Ratios of […]
male and female Swiss-wester mice. […]

in vivo = conditions: both sexes, mouse, oral, Swiss Webster mice, 10 consecutive days, read-out: Repeated maximum tolerated dose (rMTD)
Experimental: Maximum tolerated dose of compounds in mice.
To determine a single maximum tolerated dose (sMTD), male and female Swiss Webster mice were first given a single 50 mg/kg dose of compound formulated in N-methyl-2-pyrrolidone (10% v/v) and 0.2% hydroxypropyl methylcellulose (90% v/v). Mice were monitored daily for up to 7 days post-administration for overall condition using a Total Condition Scoring (TCS) system (Supplementary Table S1) and body weight changes. If greater than 20% body weight loss was recorded, the dose was lowered in two-fold amounts in subsequent tests. […] When no toxicity was observed, sMTD values were utilized to determine the repetitive maximum tolerated dose (rMTD). Male and female Swiss-Webster mice were treated with sMTD for 10 consecutive days. […] If adverse effects were recorded, the daily doses were reduced two-fold in follow-up work. At the end of the study, mice were euthanized by CO2 asphyxiation followed by cervical dislocation.

[3] = test system: DNA synthesis in Trypanosoma brucei; test: DNA synthesis (EdU incorporation); type: cell-based; conditions: for Effect on EdU incorporation into nuclei (DNA synthesis): DTC25 (CBL0174 48 nM, CBL0187 54 nM), vs DMSO, p < 0.0001; for DNA Synthesis affected: DTC25, Table S3
Experimental: Incorporated EdU was tracked by clicking with azide-Alexa Fluor-488 and observed with a fluorescence microscope. For quantitation, at least 100 cells were analyzed from each sample. (A) Representative images of the EdU-positive signal (green) with DAPI (blue) in 0.1% DMSO (top), CBL0174-treated (middle), or CBL0187-treated cells (bottom). (B) Representative images for quantitation of nuclear EdU brightness (nEdU). CellProfiler 3.1.9 was used to extract the EdU fluorescence signal over the DAPI area. Lines represent the median with error bars denoting standard deviation (SD) from three biological replicates. The statistical significance of the distribution of EdU brightness in different treatment groups was analyzed with a Mann–Whitney test.
Bloodstream trypanosomes (5 × 10^5 cells/mL) pretreated with DTC25 concentrations of CBL0174 or CBL0187 in HMI-9 medium (for 15 min) were incubated with 5-ethynyl-2′-deoxyuridine (EdU) (Abcam) (300 μM) for 1 h. Cells were prepared as per [Sullenberger et al. (2017)]. Images of trypanosomes were captured using a DeltaVision II Olympus inverted microscope processed with Fiji (ImageJ, v 2.0.0) and analyzed using CellProfiler 3.1.9 ([Sanz-Rodriguez et al., 2022]).

[4] = test system: Trypanosoma brucei Lister427; test: Recovery of trypanosome proliferation after 6-h exposure to Cmax or AUC0–6h amounts in 50% serum; type: cell-based; conditions: for Trypanocidal or cytostatic outcome: 6-h treatment with Cmax equivalents
Experimental: Recovery of trypanosome proliferation after a 6-h exposure to curaxins
The in vivo plasma exposure of trypanosomes to drug is expressed as area under the curve (AUC) in pharmacokinetic analysis. Theoretically, the same drug exposures in vitro and in vivo will be achieved within 6 h if the in vitro compound concentration × 6 h value was equal to in vivo AUC0–6h. […] AUC0–6h unbound is equal to the AUC0–6h × fraction of drug unbound to plasma (PFU) (Table 4).
Trypanosomes (1 × 10^5/mL) were treated with a concentration equivalent of the AUC0–6h unbound (Table 4) of each compound. After 6 h, cells were washed and resuspended (1 × 10^5 cells/mL) in drug-free medium. […] Proliferation recovery time was recorded post drug wash-off as described above.

[5] = Caco-2, pH 7.4, Caco-2, direction A-to-B
[6] = Caco-2, pH 7.4, Caco-2, direction B-to-A
[7] = 6-h treatment with Cmax amount (CBL0137 1.85, CBL0174 1.04, CBL0187 0.72 μM), 50% serum, NR = no recovery 84 h after wash-off

Row | Structure (SMILES) | Papp at 120 min, 5 μM [1, 5] | recovery at 120 min, 5 μM [1, 5] | Papp at 120 min, 5 μM [1, 6] | recovery at 120 min, 5 μM [1, 6] | Kp ([2]; brain, oral) | Kp ([2]; in vivo, po) | MTD at 10 days (in vivo) | Effect on EdU incorporation into nuclei (DNA synthesis) [3] | DNA Synthesis affected [3] | Latency of proliferation [4] | Latency of proliferation [4, 7] | Trypanocidal or cytostatic outcome ([4]; 50% serum) | Time to resumption of proliferation (before subtracting 18 h of control) ([4]; 6-h treatment with Cmax equivalent, 50% serum)
1 | CC(=O)c1cc2c3cc(C(C)=O)c(O)cc3n(CCCN(C)C)c2cc1O [CBL0174, 1-[6-acetyl-9-[3-(dimethylamino)propyl]-2,7-dihydroxy-carbazol-3-yl]ethanone] | 17.8 ± 0.35 ×10⁻⁶ cm/s | 60% | 21.9 ± 3.39 ×10⁻⁶ cm/s | 86% | 26.9 | 27.9 | 60 mg/kg | inhibited EdU incorporation into nuclei | Yes | 66 h | 66 h | cytostatic | 
2 | CC(=O)c1cc2c3cc(C(C)=O)c(O)cc3n(CCNC(C)C)c2cc1O [CBL0187, 1-[6-acetyl-2,7-dihydroxy-9-[2-(isopropylamino)ethyl]carbazol-3-yl]ethanone] | 14 ± 1.91 ×10⁻⁶ cm/s | 47% | 21.7 ± 3.39 ×10⁻⁶ cm/s | 64% | 15.9 |  | 50 mg/kg | inhibited EdU incorporation into nuclei | Yes | 30 h | 6 h | not trypanocidal | 24 h
